Tested on: TNF-α
Assay: Lipopolysaccharide-activated THP1 cell TNF production assay (LPS induced TNF release)
Assay type: cell-based
Details: Homo sapiens, THP-1; THP1 cells, bacterial LPS, secreted TNF-α after 3 h at 37° C.
Procedure: Lipopolysaccharide-Activated THP1 Cell TNF Production Assay
THP1 cells are resuspended in fresh THP1 media (RPMI 1640, 10% heat-inactivated FBS, 1XPGS, 1XNEAA, plus 30 μM βME) at a concentration of 1E6/mL. One hundred microliters of cells per well are plated in a polystyrene 96-well tissue culture. One microgram per mL of bacterial LPS is prepared in THP1 media and is transferred to the wells. Test compounds are dissolved in 100% DMSO and are serially diluted 3 fold in a polypropylene 96-well microtiter plate (drug plate). HI control and LO control wells contain only DMSO. One microliter of test compound from the drug plate followed by 10 μL of LPS are transferred to the cell plate. The treated cells are induced to synthesize and secrete TNF-α at 37° C. for 3 h. Forty microliters of conditioned media are transferred to a 96-well polypropylene plate containing 110 μL of ECL buffer (50 mM Tris-HCl pH 8.0, 100 mM NaCl, 0.05% Tween 20, 0.05% NaN3 and 1% FBS) supplemented with 0.44 nM MAB610 monoclonal Ab (R&D Systems), 0.34 nM ruthenylated AF210NA polyclonal Ab (R&D Systems) and 44 μg/mL sheep anti-mouse M280 Dynabeads (Dynal). After a 2 h incubation at room temperature with shaking, the reaction is read on the ECL M8 Instrument (IGEN Inc.). A low voltage is applied to the ruthenylated TNF-α immune complexes, which in the presence of TPA (the active component in Origlo), results in a cyclical redox reaction generating light at […]. The amount of secreted TNF-α: in the presence of compound compared with that in the presence of DMSO vehicle alone (HI control) is calculated using the formula:% control (POC)=(cpd−average LO)/(average HI−average LO)*100. Data (consisting of POC and inhibitor concentration in μM) is fitted to a 4-parameter equation (y=A+((B−A)/(1+((x/C)ˆD))), where A is the minimum y (POC) value, B is the maximum y (POC), C is the x (cpd concentration) at the point of inflection and D is the slope factor) using a Levenburg-Marquardt non-linear regression algorithm.

SMILES | IC50 [µM]
CC(Cc1cccc(CN)c1)Nc1nccc(N(C)c2nc(-c3ccccc3)cc3nccn23)n1 (stereo not drawn) [N2-[2-(3-Aminomethyl-phenyl)-1-methyl-ethyl]-N4-methyl-N4-(7-phenyl-imidazo[1,2-c]pyrimidin-5-yl)-pyrimidine-2,4-diamine] | ≤ 20
C[C@H](Nc1nccc(Nc2nc(-c3ccccc3)cc3ncnn23)n1)c1ccccc1 [Example 7, (S)—N^2-(1-phenyl-ethyl)-N^4-(7-phenyl-[1,2,4]triazolo[1,5-c]pyrimidine-5-yl)-pyrimidine-2,4-diamine] | ≤ 20
CN(c1ccnc(NC2CCN(C(=O)OC(C)(C)C)CC2)n1)c1nc(-c2ccccc2)cc2ncnn12 [4-{4-[methyl-(7-phenyl-[1,2,4]triazolo[1,5-c]pyrimidin-5-yl)-amino]-pyrimidin-2-ylamino}-piperidine-1-carboxylic acid tert-butyl ester] | ≤ 20
C[C@@H](Nc1nccc(Nc2nc(-c3ccccc3)cc3ncnn23)n1)c1ccccc1 [(R)-N^2-(1-Phenyl-ethyl)-N^4-(7-phenyl-[1,2,4]triazolo[1,5-c]pyrimidine-5-yl)-pyrimidine-2,4-diamine] | ≤ 20
CC(Cc1cccc(CO)c1)Nc1nccc(N(C)c2nc(-c3ccccc3)cc3nccn23)n1 (stereo not drawn) [[3-(2-{4-[Methyl-(7-phenyl-imidazo[1,2-c]pyrimidin-5-yl)-amino]-pyrimidin-2-ylamino}-propyl)-phenyl]-methanol] | ≤ 20
C[C@@H](Cc1cccc(S(N)(=O)=O)c1)Nc1nccc(N(C)c2nc(-c3ccccc3)cc3ncnn23)n1 | ≤ 20
C[C@@H](Cc1cccc(CO)c1)Nc1nccc(N(C)c2nc(-c3ccccc3)cc3ncnn23)n1 [(S)-[3-(2-{4-[methyl-(7-phenyl-[1,2,4]triazolo[1,5-c]pyrimidine-5-yl)-amino]-pyrimidin-2-ylamino}-propyl)-phenyl]-methanol] | ≤ 20
C[C@@H](Cc1ccccc1)Nc1nccc(N(C)c2nc(-c3ccccc3)cc3ncnn23)n1 [Example 10, N^4-methyl-N^2-(S)-(1-methyl-2-phenyl-ethyl)-N^4-(7-phenyl-[1,2,4]triazolo[1,5-c]pyrimidine-5-yl)-pyrimidine-2,4-diamine] | ≤ 20
CC(Cc1ccccc1)Nc1nccc(Nc2nc(-c3ccccc3)cc3ncnn23)n1 (stereo not drawn) [N^2-(1-methyl-2-phenyl-ethyl)-N^4-(7-phenyl-[1,2,4]triazolo[1,5-c]pyrimidine-5-yl)-pyrimidine-2,4-diamine] | ≤ 20
CC(Cc1cccc(CN)c1)Nc1nccc(N(C)c2nc(-c3ccccc3)cc3ncnn23)n1 (stereo not drawn) [N^2-[2-(3-aminomethyl-phenyl)-1-methyl-ethyl]-N^4-methyl-N^4-(7phenyl-[1,2,4]triazolo[1,5-c]pyrimidin-5-yl)-pyrimidine-2,4-diamine] | ≤ 20
c1ccc(CCNc2nccc(Nc3nc(-c4ccccc4)cc4ncnn34)n2)cc1 [Example 4, N^2-phenethyl-N^4-(7-phenyl-[1,2,4]triazolo[1,5-c]pyrimidine-5-yl)-pyrimidine-2,4-diamine] | ≤ 20
CC(Cc1cccc(CO)c1)Nc1nccc(N(C)c2nc(-c3ccccc3)cc3ncnn23)n1 (stereo not drawn) [[3-(2-{4-[methyl-(7-phenyl-[1,2,4]triazolo[1,5-c]pyrimidine-5-yl)-amino]-pyrimidin-2-ylamino}-propyl)-phenyl]-methanol] | ≤ 20
CC(Cc1cccc(CN)c1)Nc1nccc(N(C)c2cc(-c3ccccc3)cc3ncnn23)n1 (stereo not drawn) [N^2-[2-(3-Aminomethyl-phenyl)-1-methyl-ethyl]-N^4-methyl-N^4-(7-phenyl-[1,2,4]triazolo[1,5-a]pyridin-5-yl)-pyrimidine-2,4-diamine] | ≤ 20
C[C@@H](Cc1cccc(S(=O)(=O)N(C)CCN(C)C)c1)Nc1nccc(N(C)c2nc(-c3ccccc3)cc3ncnn23)n1 | ≤ 20
CC(Cc1cccc(C(C)N)c1)Nc1nccc(N(C)c2nc(-c3ccccc3)cc3ncnn23)n1 (stereo not drawn) [N^2-{2-[3-(1-amino-ethyl)-phenyl]-1-methyl-ethyl}-N^4-methyl-N^4-(7-phenyl-[1,2,4]triazolo[1,5-c]pyrimidine-5-yl)-pyrimidine-2,4-diamine] | ≤ 20
Cc1cc(N(C)c2nc(-c3ccccc3)cc3ncnn23)nc(N[C@@H](C)Cc2cccc(CN)c2)n1 | ≤ 20
Cc1cc(N(C)c2nc(-c3ccccc3)cc3ncnn23)nc(N[C@@H](C)Cc2cccc([C@@H](C)N)c2)n1 [Example 35] | ≤ 20
C[C@@H](Cc1cccc(CN)c1)Nc1nccc(N(C)c2nc(-c3ccccc3)cc3ncnn23)n1 [(S)-N^2-[2-(3-aminomethyl-phenyl)-1-methyl-ethyl]-N^4-methyl-N^4-(7-phenyl-[1,2,4]triazolo[1,5-c]pyrimidin-5-yl)-pyrimidine-2,4-diamine] | ≤ 20

Reference: US20050288502A1, “Substituted heterocyclic compounds and methods of use” (priority 2004, published 2005)
